# According to EP0511845B1, “Pesticidal 1-aryl-5-(substituted alkylideneimino)-pyrazoles” (AVENTIS CROPSCIENCE S.A., priority 1991, dated 1992):
# Tests used:
# Type in all cases: in vivo
# Spodoptera eridania [1] = experiment: Southern armyworm on sorghum - systemic evaluation (soil drench); conditions: systemic via root uptake, 20 ppm soil concentration dose (and subsequent dilutions), six days
# Procedure: Cotton aphid and southern armyworm (on cotton) and greenbug and southern armyworm (on sorghum) - systemic evaluation: A stock solution or suspension was prepared to deliver 5 ml of a 20 ppm soil concentration dose (and subsequent dilutions) as a drench to 6 cm pots containing cotton and sorghum plants. The cotton plants were previously infested with cotton aphids about two days before treatment and greenbug one day before treatment. After holding the plants about three days, the plants were rated for aphid activity. Again at six days, the plants were rated for aphid activity and the cotton aphids and greenbugs were counted and mortality was assessed. Portions of the cotton and sorghum foliage were excised, placed in separate plastic containers, and infested with second instar larvae of southern armyworms. The potted plants were dipped in sulfotepp to kill the remaining aphids and returned to the greenhouse for regrowth. Thirteen days after treatment the remaining foliage was excised and fed to southern armyworm. Mortality was assessed six days after infestation.
# Spodoptera eridania [2] = experiment: Southern armyworm on tomato - systemic evaluation; conditions: systemic via root uptake; 6.6 ppm soil concentration; foliage excised 21 days after treatment, larvae examined after about 5 days
# Procedure: For southern root-knot nematod and systemic tests for southern armyworm, cotton aphid, tobacco budworm and greenbug, a stock solution or suspension was prepared by adding 15 mg of the test compound to 250 mg of dimethylformamide, 1250 mg of acetone and 3 mg of the emulsifier blend referenced above. Water was then added to provide a test compound concentration of 150 ppm. When necessary, sonication was provided to insure complete dispersion. Southern armyworm on tomato - systemic evaluation: This test was conducted in conjunction with the southern root-knot nematode evaluation (discussed below). The tomato plants, grown in the soil (at an initial compound test screening rate of 6.6 ppm soil concentration or about 150 ppm solution concentration) for nematode evaluation, were then utilized for evaluation of a compound's uptake via roots and subsequent systemic transport to the tomato foliage. At the termination of the nematode test, 21 days after treatment, the tomato foliage was excised, placed into a plastic container, and infested with second instar larvae of southern armyworm. After about 5 days, the larvae were examined for percent mortality.
# Meloidogyne incognita = experiment: Southern root-knot nematode test (gall rating on tomato); conditions: effective dose to provide a 3 gall rating (light galling)
# Procedure: For southern root-knot nematod and systemic tests for southern armyworm, cotton aphid, tobacco budworm and greenbug, a stock solution or suspension was prepared by adding 15 mg of the test compound to 250 mg of dimethylformamide, 1250 mg of acetone and 3 mg of the emulsifier blend referenced above. Water was then added to provide a test compound concentration of 150 ppm. When necessary, sonication was provided to insure complete dispersion.
# Southern root-knot nematode: Infected roots of tomato plants, containing egg masses of southern root-knot nematode, were removed from a stock culture and cleaned of soil by shaking and washing with tap water. The nematode eggs were separated from the root tissue and rinsed with water. Samples of the egg suspension were placed on a fine screen over a receiving bowl, in which the water level was adjusted to be in contact with the screen. From the bowl, juveniles were collected on a fine screen. […] At the termination of the test, roots of the tomato seedling were removed from the cone and evaluated for galling on a rating scale relative to the untreated control as follows: • 1- severe galling, equal t untreated control • 3- light galling • 4- very light galling • 5- no galling, ie, complete control
# Tetranychus urticae = experiment: Twospotted spider mite test (foliar, 100 ppm); conditions: foliar bait tests
# Procedure: For mite, aphid, southern armyworm, Mexican bean beetle, and tobacco budworm tests, a solution or suspension was prepared by adding 10 mg of the test compound to a solution of 160 mg of dimethylformamide, 838 mg of acetone, 2 mg of a 3:1 ratio of Triton X-172 : Triton X-152 (respectively, mainly anionic and nonionic low foam emulsifiers which are each anhydro us blends of alkylaryl polyether alcohols with organic sulfonates), and 98.99 g of water. The result was a concentration of 100 ppm of the test compound.
# Twospotted spider mite: Leaves infested with adult and nymphal stages of the two-spotted spider mite, obtained from a stock culture were placed on the primary leaves of two bean plants growing in a 6 cm. peat pot. A sufficient number of mites (150-200) for testing were transferred to the fresh plants within a period of twenty-four hours. The potted plants (one pot per compound) were placed on a revolving turntable and sprayed, sufficient to wet the plants to runoff, with 100 ml of the 100 ppm test compound formulation by use of a DeVilbiss spray gun set at 40 psig. air pressure. As an untreated control, 100 ml of the water-acetone-DMF-emulsifier solution, containing no test compound, were also sprayed on infested plants. A treated control with a commercial technical compound, either dicofol or hexythiazox, formulated in the same manner, was tested as a standard. […]
# Heliothis virescens [3] = experiment: Tobacco budworm - contact evaluation (topical application); conditions: topical or contact tests; application dose of 63 µg/g body weight
# Procedure: For tobacco budworm contact tests, a stock solution was prepared by dissolving the compound in acetone and then further diluted to provide the required serial dilution concentrations.
# Tobacco budworm - contact evaluation: The following topical application method provides an assessment of contact toxicity of a compound to tobacco budworm larvae The test compound solution at sequential two-fold dilution concentrations from 10 down to 0.16 µg/µl was applied by a microinjector in repli cated 1 µl portions to the dorsum of approximately 20 mg tobacco budworm larvae. This is equivalent to applied doses of 500 down to 8 µg/g body weight. An acetone treated control, without any test compounds, as also applied. A treated control with a commercial technical compound, cypermethrin or thiodicarb, also in acetone was used as a standard. The treated larvae were placed, individually, in separate plastic petri dishes containing an untreated cotton leaf and a moist dental wick. The treated larvae were maintained at about 27°C and 50% relative humidity. The percent mortality was rated 1 and 4 days after treatment.
# Spodoptera eridania [4] = experiment: Southern armyworm on oats - seed treatment evaluation; conditions: 1.0 wt. % on oat seeds
# Procedure: Cotton aphid and southern armyworm (on cotton and oats) - seed treatment evaluation: Technical material was applied to the seed of oats and cotton by placing the compound and the seed in an appropriate sized jar and rolling the jar on a ball mill. Assay of the material applied to the seed was by weight. Seed was then planted. When germinated and emerged, the plants were infested at the appropriate intervals with host insects. Mortality was assessed on those insects.
# Aphis gossypii = experiment: Cotton aphid on cotton - systemic evaluation (soil drench); conditions: systemic via root uptake, soil drench at soil concentrations of the protocols (10.0 or 20 ppm)
# Procedure: (§1) For southern root-knot nematod and systemic tests for southern armyworm, cotton aphid, tobacco budworm and greenbug, a stock solution or suspension was prepared by adding 15 mg of the test compound to 250 mg of dimethylformamide, 1250 mg of acetone and 3 mg of the emulsifier blend referenced above. Water was then added to provide a test compound concentration of 150 ppm. When necessary, sonication was provided to insure complete dispersion. Cotton aphid and tobacco budworm (on cotton) and greenbug and tobacco budworm (on sorghum) - systemic evaluation: A 7.0 ml aliquot of the 150 ppm nematode test solution was applied to deliver the equivalent of 10.0 ppm soil concentration dose as a drench to 6 cm pots containing cotton and sorghum plants. The cotton plants were previously infested with cotton aphids about two days before treatment and greenbug one day before treatment. After holding the plants about three days, the plants were rated for aphid activity. Again at six days, the plants were rated for aphid activity and the cotton aphids and greenbugs were counted and mortality was assessed. Portions of the cotton and sorghum foliage were excised, placed in separate plastic containers, and infested with second instar larvae of tobacco budworm. The potted plants were dipped in sulfotepp to kill the remaining aphids and returned to the greenhouse for regrowth. Thirteen days after treatment, the remaining foliage was excised and fed to tobacco budworms. Mortality was assessed six days after infestation. Cotton aphid and southern armyworm (on cotton) and greenbug and southern armyworm (on sorghum) - systemic evaluation: A stock solution or suspension was prepared to deliver 5 ml of a 20 ppm soil concentration dose (and subsequent dilutions) as a drench to 6 cm pots containing cotton and sorghum plants. The cotton plants were previously infested with cotton aphids about two days before treatment and greenbug one day before treatment. After holding the plants about three days, the plants were rated for aphid activity. Again at six days, the plants were rated for aphid activity and the cotton aphids and greenbugs were counted and mortality was assessed. Portions of the cotton and sorghum foliage were excised, placed in separate plastic containers, and infested with second instar larvae of southern armyworms. The potted plants were dipped in sulfotepp to kill the remaining aphids and returned to the greenhouse for regrowth. Thirteen days after treatment the remaining foliage was excised and fed to southern armyworm. Mortality was assessed six days after infestation.
# Heliothis virescens [5] = experiment: Tobacco budworm on sorghum - systemic evaluation (soil drench); conditions: systemic via root uptake, 10.0 ppm soil concentration
# Procedure: For southern root-knot nematod and systemic tests for southern armyworm, cotton aphid, tobacco budworm and greenbug, a stock solution or suspension was prepared by adding 15 mg of the test compound to 250 mg of dimethylformamide, 1250 mg of acetone and 3 mg of the emulsifier blend referenced above. Water was then added to provide a test compound concentration of 150 ppm. When necessary, sonication was provided to insure complete dispersion. Cotton aphid and tobacco budworm (on cotton) and greenbug and tobacco budworm (on sorghum) - systemic evaluation: A 7.0 ml aliquot of the 150 ppm nematode test solution was applied to deliver the equivalent of 10.0 ppm soil concentration dose as a drench to 6 cm pots containing cotton and sorghum plants. The cotton plants were previously infested with cotton aphids about two days before treatment and greenbug one day before treatment. After holding the plants about three days, the plants were rated for aphid activity. Again at six days, the plants were rated for aphid activity and the cotton aphids and greenbugs were counted and mortality was assessed. Portions of the cotton and sorghum foliage were excised, placed in separate plastic containers, and infested with second instar larvae of tobacco budworm. The potted plants were dipped in sulfotepp to kill the remaining aphids and returned to the greenhouse for regrowth. Thirteen days after treatment, the remaining foliage was excised and fed to tobacco budworms. Mortality was assessed six days after infestation.
# Schizaphis graminum = experiment: Greenbug on sorghum - systemic evaluation (soil drench); conditions: systemic via root uptake, soil drench at soil concentrations of the protocols (10.0 or 20 ppm)
# Procedure: as §1
structure (smiles),measurement,setting,value
"COc1cc(C=Nc2c([S+]([O-])C(F)(F)F)c(C#N)nn2-c2c(Cl)cc(C(F)(F)F)cc2Cl)ccc1O (stereo not drawn) [compound 10, 1-(2,6-dichloro-4-trifluoromethylphenyl)-3-cyano-4-trifluoromethylsulfinyl-5-[(4-hydroxy-3-methoxyphenyl)methylideneimino]pyrazole]",control of southern armyworm after six days on sorghum,Spodoptera eridania [1],30-100%
same,control of southern armyworm on tomato,Spodoptera eridania [2],50-100%
same,ED3 value on SRKN larvae,Meloidogyne incognita,about 21 kg/ha
N#Cc1nn(-c2c(Cl)cc(C(F)(F)F)cc2Cl)c(N=Cc2cccs2)c1SC(F)(F)F [compound 7],ED3 value on SRKN larvae,Meloidogyne incognita,about 21 kg/ha
CCOc1cc(C=Nc2c([S+]([O-])C(F)(F)F)c(C#N)nn2-c2c(Cl)cc(C(F)(F)F)cc2Cl)ccc1O (stereo not drawn) [compound 47],control of mites,Tetranychus urticae,30-70%
COc1cc(C=Nc2c(SC(F)(F)F)c(C#N)nn2-c2c(Cl)cc(C(F)(F)F)cc2Cl)cc(O)c1O [compound 40],control of tobacco budworm (TBW),Heliothis virescens [3],50-100%
same,control of mites,Tetranychus urticae,30-70%
"COc1cc(C=Nc2c(SC(F)(F)F)c(C#N)nn2-c2c(Cl)cc(C(F)(F)F)cc2Cl)ccc1O [CMPD NO. 2, 1-(2,6-dichloro-4-trifluoromethylphenyl)-3-cyano-4-trifluoromethylsulfenyl-5-[(4-hydroxy-3-methoxyphenyl)methylideneimino]pyrazole]",control of southern armyworm after six days,Spodoptera eridania [4],100%
same,control of southern armyworm after six days on sorghum,Spodoptera eridania [1],30-100%
"N#Cc1nn(-c2c(Cl)cc(C(F)(F)F)cc2Cl)c(N=Cc2ccncc2)c1SC(F)(F)F [compound 16, 1-(2,6-dichloro-4-trifluoromethylphenyl)-3-cyano-4-trifluoromethylsulfenyl-5-[(4-pyridyl)-methylideneimino]pyrazole]",control of cotton aphid after six days on cotton,Aphis gossypii,30-100%
same,control of tobacco budworm after six days on sorghum,Heliothis virescens [5],100%
same,control of greenbug after six days on sorghum,Schizaphis graminum,30-100%
N#Cc1nn(-c2c(Cl)cc(C(F)(F)F)cc2Cl)c(N=Cc2ccc(O)cc2O)c1SC(F)(F)F [compound 17],control of cotton aphid after six days on cotton,Aphis gossypii,30-100%
same,control of tobacco budworm after six days on sorghum,Heliothis virescens [5],100%
same,control of greenbug after six days on sorghum,Schizaphis graminum,30-100%
